± gives the expanded uncertainty stated by the source.
Conditions: Crystal; Phase equilibration

With `O=C([O-])CCP(=O)(O)c1ccccc1.[Na+]` [monosodium 3-(hydroxyphenylphosphinyl)propanoate] the Normal melting temperature was 231 ± 0.7 °C.

From the NIST ThermoML archive (doi:10.1016/j.fluid.2013.02.001)
